This assay addresses T1, human GPR17 receptor (Homo sapiens, UniProt Q13304).
T1 construct: host or cells: HEK-293
The assay can be described thus: Calcium mobilization functional assay (Fluo-8, FLIPR TETRA) in HEK-293 hGPR17 (Gα-q assay). The format is cell-based. The settings on record: antagonism of MDL29,951 (~EC80) induced Ca2+ signal; cell line (HEK-293 hGPR17 or HEK-293 Suchi5 hGPR17) not given. The method, boiled down: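 Fluo-8-loaded HEK-293 hGPR17 cells (60 min dye loading, room temperature) were preincubated with compound for twenty minutes, then challenged with agonist MDL29,951 at ~EC80, 500 nM. Intracellular calcium release via Gα-q was recorded as FLIPR fluorescence for a further 2 minutes; compounds tested in duplicate.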

T1 sequence (Q13304 whole entry): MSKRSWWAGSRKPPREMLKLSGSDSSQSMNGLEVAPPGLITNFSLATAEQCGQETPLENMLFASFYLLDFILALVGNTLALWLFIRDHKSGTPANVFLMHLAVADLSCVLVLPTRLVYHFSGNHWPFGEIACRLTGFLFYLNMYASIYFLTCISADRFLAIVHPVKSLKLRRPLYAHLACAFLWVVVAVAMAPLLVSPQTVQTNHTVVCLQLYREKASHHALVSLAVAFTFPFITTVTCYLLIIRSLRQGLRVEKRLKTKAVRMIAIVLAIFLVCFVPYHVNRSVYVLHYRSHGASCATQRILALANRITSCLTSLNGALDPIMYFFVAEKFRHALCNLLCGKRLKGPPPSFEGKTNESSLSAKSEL

As to `N#CCOc1cc(F)c(NS(=O)(=O)c2c[nH]c(-c3ccccc3F)c2)cc1F` [Cpd 448, N-[4-(cyanomethoxy)-2,5-difluorophenyl]-5-(2-fluorophenyl)-1H-pyrrole-3-sulfonamide], the IC50 was less than 500 nM. With `N#CCOc1cc(F)c(NS(=O)(=O)c2c[nH]c(-c3cc(Cl)ccc3F)c2)cc1F` [Cpd 449, 5-(5-chloro-2-fluorophenyl)-N-[4-(cyanomethoxy)-2,5-difluorophenyl]-1H-pyrrole-3-sulfonamide] the figure was less than 500 nM; with `N#CCOc1cc(F)c(NS(=O)(=O)c2c[nH]c(-c3ccc(F)cc3)c2)cc1F` [Cpd 450, N-[4-(cyanomethoxy)-2,5-difluorophenyl]-5-(4-fluorophenyl)-1H-pyrrole-3-sulfonamide], 500 to 5000 nM. Consider `N#CCOc1cc(F)c(NS(=O)(=O)c2c[nH]c(-c3ccc(F)cc3F)c2)cc1F` [Cpd 451, N-[4-(cyanomethoxy)-2,5-difluorophenyl]-5-(2,4-difluorophenyl)-1H-pyrrole-3-sulfonamide], for which the IC50 lay within 500 to 5000 nM. With `O=S(=O)(Nc1cc(F)c(OC(F)F)cc1F)c1c[nH]cc1Cc1cccs1` [Cpd 452, N-[4-(difluoromethoxy)-2,5-difluorophenyl]-4-(thiophen-2-ylmethyl)-1H-pyrrole-3-sulfonamide] the figure was less than 500 nM; with `O=S(=O)(Nc1cc(F)c(OC(F)F)cc1F)c1c[nH]cc1Cc1cccc(F)c1` [Cpd 453, N-[4-(difluoromethoxy)-2,5-difluorophenyl]-4-[(3-fluorophenyl)methyl]-1H-pyrrole-3-sulfonamide], less than 500 nM.

As to `O=S(=O)(Nc1cc(F)c(OC(F)F)cc1F)c1c[nH]cc1Cc1cccc(Cl)c1` [Cpd 454, 4-[(3-chlorophenyl)methyl]-N-[4-(difluoromethoxy)-2,5-difluorophenyl]-1H-pyrrole-3-sulfonamide], the IC50 was 500 to 5000 nM. The value for `O=S(=O)(Nc1cc(Cl)c(OC(F)F)cc1F)c1c[nH]c(-c2ccccc2)c1` [Cpd 455, N-[5-chloro-4-(difluoromethoxy)-2-fluorophenyl]-5-phenyl-1H-pyrrole-3-sulfonamide] was less than 500 nM; that for `N#Cc1cc(F)c(NS(=O)(=O)c2c[nH]c(-c3cc(Cl)c(F)cc3F)c2)cc1F` [Cpd 456, 5-(5-chloro-2,4-difluorophenyl)-N-(4-cyano-2,5-difluorophenyl)-1H-pyrrole-3-sulfonamide] was less than 500 nM; that for `Cc1cc(-c2cc(S(=O)(=O)Nc3cc(F)c(C(F)(F)F)cc3F)c[nH]2)cs1` [Cpd 457, N-[2,5-difluoro-4-(trifluoromethyl)phenyl]-5-(5-methylthiophen-3-yl)-1H-pyrrole-3-sulfonamide] was 500 to 5000 nM. For `O=S(=O)(Nc1cc(F)c(C(F)(F)F)cc1F)c1c[nH]c(-c2csc(Cl)c2)c1` [Cpd 458, 5-(5-chlorothiophen-3-yl)-N-[2,5-difluoro-4-(trifluoromethyl)phenyl]-1H-pyrrole-3-sulfonamide], the IC50 fell in the range of 500 to 5000 nM.

With `N#CCOc1cc(F)c(NS(=O)(=O)c2c[nH]c(-c3ccccc3Cl)c2)cc1F` [Cpd 459, 5-(2-chlorophenyl)-N-[4-(cyanomethoxy)-2,5-difluorophenyl]-1H-pyrrole-3-sulfonamide], the IC50 was less than 500 nM. The value for `COc1nc(OCC(F)F)c(F)cc1NS(=O)(=O)c1c[nH]cc1-c1cccc(F)c1` [Cpd 460, N-[6-(2,2-difluoroethoxy)-5-fluoro-2-methoxypyridin-3-yl]-4-(3-fluorophenyl)-1H-pyrrole-3-sulfonamide] was 500 to 5000 nM; that for `Cc1[nH]cc(S(=O)(=O)Nc2ccc(C#N)cc2F)c1-c1ccccc1` [Cpd 461, N-(4-cyano-2-fluorophenyl)-5-methyl-4-phenyl-1H-pyrrole-3-sulfonamide] was 5000 to 50000 nM; that for `N#Cc1cc(F)c(NS(=O)(=O)c2c[nH]c(-c3c(F)cc(F)cc3F)c2)cc1F` [Cpd 462, N-(4-cyano-2,5-difluorophenyl)-5-(2,4,6-trifluorophenyl)-1H-pyrrole-3-sulfonamide] was less than 500 nM. The value for `O=S(=O)(Nc1cc(F)c(OCC(F)F)cc1F)c1c[nH]c(-c2ccccc2)c1` [Cpd 463, N-[4-(2,2-difluoroethoxy)-2,5-difluorophenyl]-5-phenyl-1H-pyrrole-3-sulfonamide] was 500 to 5000 nM; that for `COc1cc(CC#N)cnc1NS(=O)(=O)c1c[nH]c(-c2ccccc2F)c1` [Cpd 464, N-[5-(cyanomethyl)-3-methoxypyridin-2-yl]-5-(2-fluorophenyl)-1H-pyrrole-3-sulfonamide] was 500 to 5000 nM; that for `O=S(=O)(Nc1cc(F)c(C(F)(F)F)cc1F)c1c[nH]c(-c2cccc3cccnc23)c1` [Cpd 465, N-[2,5-difluoro-4-(trifluoromethyl)phenyl]-5-quinolin-8-yl-1H-pyrrole-3-sulfonamide] was 500 to 5000 nM.

Regarding `N#CCOc1cc(F)c(NS(=O)(=O)c2c[nH]cc2-c2cccc(F)c2)cc1F` [Cpd 466, N-[4-(cyanomethoxy)-2,5-difluorophenyl]-4-(3-fluorophenyl)-1H-pyrrole-3-sulfonamide], the IC50 is 500 to 5000 nM. With `O=S(=O)(Nc1cc(F)c(OCC(F)F)cc1F)c1c[nH]cc1Cc1ccccc1` [Cpd 468, 4-benzyl-N-[4-(2,2-difluoroethoxy)-2,5-difluorophenyl]-1H-pyrrole-3-sulfonamide] the figure was 500 to 5000 nM. Turning to `COc1nc(Br)cnc1NS(=O)(=O)c1c[nH]cc1-c1cccc(F)c1` [Cpd 469, N-(5-bromo-3-methoxypyrazin-2-yl)-4-(3-fluorophenyl)-1H-pyrrole-3-sulfonamide], the IC50 lay within 500 to 5000 nM. As to `N#Cc1cc(F)c(NS(=O)(=O)c2c[nH]c(-c3cc(Cl)c(F)cc3F)c2)cc1Cl` [Cpd 470, 5-(5-chloro-2,4-difluorophenyl)-N-(5-chloro-4-cyano-2-fluorophenyl)-1H-pyrrole-3-sulfonamide], the IC50 lay in the range of 500 to 5000 nM. The value for `Cc1cc(NS(=O)(=O)c2c[nH]c(-c3cc(Cl)c(F)cc3F)c2)c(F)cc1C#N` [Cpd 471, 5-(5-chloro-2,4-difluorophenyl)-N-(4-cyano-2-fluoro-5-methylphenyl)-1H-pyrrole-3-sulfonamide] was 500 to 5000 nM; that for `N#CCOc1cnc(NS(=O)(=O)c2c[nH]c(-c3ccccc3)c2)c(F)c1` [Cpd 472, N-[5-(cyanomethoxy)-3-fluoropyridin-2-yl]-5-phenyl-1H-pyrrole-3-sulfonamide] was 500 to 5000 nM.

For `O=S(=O)(Nc1cc(F)c(OCC(F)F)cc1F)c1c[nH]c(-c2ccccn2)c1` [Cpd 473, N-[4-(2,2-difluoroethoxy)-2,5-difluorophenyl]-5-pyridin-2-yl-1H-pyrrole-3-sulfonamide], the IC50 lay within 500 to 5000 nM.

Turning to `O=S(=O)(Nc1cc(F)c(OC(F)F)cc1F)c1c[nH]c(-c2ccoc2)c1` [Cpd 474, N-[4-(difluoromethoxy)-2,5-difluorophenyl]-5-(furan-3-yl)-1H-pyrrole-3-sulfonamide], the IC50 was less than 500 nM.

Turning to `O=S(=O)(Nc1cc(F)c(OC(F)F)cc1F)c1c[nH]c(-c2cccs2)c1` [Cpd 475, N-[4-(difluoromethoxy)-2,5-difluorophenyl]-5-thiophen-2-yl-1H-pyrrole-3-sulfonamide], the IC50 was less than 500 nM. The value for `O=S(=O)(Nc1cc(F)c(OC(F)F)cc1F)c1c[nH]c(-c2ccsc2)c1` [Cpd 476, N-[4-(difluoromethoxy)-2,5-difluorophenyl]-5-thiophen-3-yl-1H-pyrrole-3-sulfonamide] was less than 500 nM. The value for `O=S(=O)(Nc1cc(F)c(Br)cc1F)c1c[nH]c(-c2ccoc2)c1` [Cpd 477, N-(4-bromo-2,5-difluorophenyl)-5-(furan-3-yl)-1H-pyrrole-3-sulfonamide] was less than 500 nM; that for `O=S(=O)(Nc1cc(F)c(Br)cc1F)c1c[nH]c(-c2cccs2)c1` [Cpd 478, N-(4-bromo-2,5-difluorophenyl)-5-(thiophen-2-yl)-1H-pyrrole-3-sulfonamide] was less than 500 nM; that for `O=S(=O)(Nc1cc(F)c(Br)cc1F)c1c[nH]c(-c2ccsc2)c1` [Cpd 479, N-(4-bromo-2,5-difluorophenyl)-5-thiophen-3-yl-1H-pyrrole-3-sulfonamide] was less than 500 nM. With `COc1cccc(Cc2c[nH]cc2S(=O)(=O)Nc2cc(F)c(OC(F)F)cc2F)c1` [Cpd 480, N-[4-(difluoromethoxy)-2,5-difluorophenyl]-4-[(3-methoxyphenyl)methyl]-1H-pyrrole-3-sulfonamide] the figure was less than 500 nM; with `O=S(=O)(Nc1cc(F)c(C(F)(F)F)cc1F)c1c[nH]cc1Cc1cccc(F)c1` [Cpd 481, N-[2,5-difluoro-4-(trifluoromethyl)phenyl]-4-[(3-fluorophenyl)methyl]-1H-pyrrole-3-sulfonamide], 500 to 5000 nM.

As to `COc1cccc(Cc2c[nH]cc2S(=O)(=O)Nc2cc(F)c(C(F)(F)F)cc2F)c1` [Cpd 482, N-[2,5-difluoro-4-(trifluoromethyl)phenyl]-4-[(3-methoxyphenyl)methyl]-1H-pyrrole-3-sulfonamide], the IC50 fell in the range of 500 to 5000 nM. With `O=S(=O)(Nc1cc(F)c(OC(F)F)cc1F)c1c[nH]cc1Cc1cccc(OC(F)F)c1` [Cpd 483, N-[4-(difluoromethoxy)-2,5-difluorophenyl]-4-[[3-(difluoromethoxy)phenyl]methyl]-1H-pyrrole-3-sulfonamide] the figure was 500 to 5000 nM; with `O=S(=O)(Nc1cc(F)c(OC(F)F)cc1F)c1c[nH]cc1Cc1ccccc1F` [Cpd 484, N-[4-(difluoromethoxy)-2,5-difluorophenyl]-4-[(2-fluorophenyl)methyl]-1H-pyrrole-3-sulfonamide], less than 500 nM; with `O=S(=O)(Nc1cc(F)c(OC(F)F)cc1F)c1c[nH]cc1Cc1ccc(F)cc1` [Cpd 485, N-[4-(difluoromethoxy)-2,5-difluorophenyl]-4-[(4-fluorophenyl)methyl]-1H-pyrrole-3-sulfonamide], 500 to 5000 nM.

The record behind these values is patent US20240299385A1 (ReWind Therapeutics NV, priority 2021, published 2024).
